System: 299254-011-R-J1-PDC complex spheroids viability
Assay: Anticancer human tumor 299254-011-R-J1-PDC patient-derived melanoma cell line growth inhibition [GQUAD]
Conditions: for IC50: curve of first compound; for viability, T/C: stronger effect = lower value
How it was run: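 Tumor cells were grown as complex spheroids with HUVEC endothelial cells and mesenchymal stem cells as stroma. G-quadruplex stabilizers were combined with targeted agents over half-log dilutions from near the clinical Cmax, or from 10 microM.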

[1] = second compound 0.0316 µM, first compound 0.0316 µM
[2] = second compound 0.0316 µM, first compound 0.316 µM
[3] = second compound 0.1 µM, first compound 0.0316 µM
[4] = second compound 0.1 µM, first compound 0.316 µM
[5] = second compound 0.316 µM, first compound 0.0316 µM
[6] = second compound 0.316 µM, first compound 0.316 µM
[7] = second compound 1 µM, first compound 0.0316 µM
[8] = second compound 1 µM, first compound 0.316 µM
[9] = second compound 3.16 µM, first compound 0.0316 µM
[10] = second compound 3.16 µM, first compound 0.316 µM
[11] = second compound 10 µM, first compound 0.0316 µM
[12] = second compound 10 µM, first compound 0.316 µM
[13] = second compound 0.0316 µM, first compound 0.000999 µM
[14] = second compound 0.0316 µM, first compound 0.00316 µM
[15] = second compound 0.0316 µM, first compound 0.00999 µM
[16] = second compound 0.0316 µM, first compound 0.0999 µM
[17] = second compound 0.1 µM, first compound 0.000999 µM
[18] = second compound 0.1 µM, first compound 0.00316 µM
[19] = second compound 0.1 µM, first compound 0.00999 µM
[20] = second compound 0.1 µM, first compound 0.0999 µM
[21] = second compound 0.316 µM, first compound 0.000999 µM
[22] = second compound 0.316 µM, first compound 0.00316 µM
[23] = second compound 0.316 µM, first compound 0.00999 µM
[24] = second compound 0.316 µM, first compound 0.0999 µM
[25] = second compound 1 µM, first compound 0.000999 µM
[26] = second compound 1 µM, first compound 0.00316 µM
[27] = second compound 1 µM, first compound 0.00999 µM
[28] = second compound 1 µM, first compound 0.0999 µM
[29] = second compound 3.16 µM, first compound 0.000999 µM
[30] = second compound 3.16 µM, first compound 0.00316 µM
[31] = second compound 3.16 µM, first compound 0.00999 µM
[32] = second compound 3.16 µM, first compound 0.0999 µM
[33] = second compound 10 µM, first compound 0.000999 µM
[34] = second compound 10 µM, first compound 0.00316 µM
[35] = second compound 10 µM, first compound 0.00999 µM
[36] = second compound 10 µM, first compound 0.0999 µM
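Further: spheroids exposed to the agents for seven days before readout.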
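Wherever viability, T/C is given: percent viability relative to DMSO vehicle control wells = 100%.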

**Q.** For `COc1cc(C2c3cc4c(cc3C(OC3OC5COC(C)OC5C(O)C3O)C3COC(=O)C23)OCO4)cc(OC)c1O` (stereo unspecified) + Cc1cnc(CNC(=O)c2c(=O)c3ccc(N4CCCN(C)CC4)nc3n3c2sc2ccccc23)cn1, which IC50 (second compound 0.0316 µM) is on record?
**A.** > 10000 nM

**Q.** What about the IC50 (second compound 0.1 µM) of the same compound?
**A.** > 10000 nM

**Q.** What about the IC50 (second compound 0.316 µM) of the same compound?
**A.** > 10000 nM

**Q.** What about the IC50 (second compound 1 µM) of the same compound?
**A.** > 10000 nM

**Q.** And the IC50 (second compound 3.16 µM)?
**A.** > 10000 nM

**Q.** And the IC50 (second compound 10 µM)?
**A.** 31.6 nM

**Q.** And the viability, T/C [1]?
**A.** 105%

**Q.** And the viability, T/C (second compound 0.0316 µM, first compound 0.1 µM)?
**A.** 121%

**Q.** What about the viability, T/C [2] of the same compound?
**A.** 84.4%

**Q.** What about the viability, T/C (second compound 0.0316 µM, first compound 1 µM) of the same compound?
**A.** 90.1%

**Q.** And the viability, T/C (second compound 0.0316 µM, first compound 3.16 µM)?
**A.** 76.7%

**Q.** What about the viability, T/C (second compound 0.0316 µM, first compound 10 µM) of the same compound?
**A.** 86.6%

**Q.** What about the viability, T/C [3] of the same compound?
**A.** 112%

**Q.** What about the viability, T/C (second compound 0.1 µM, first compound 0.1 µM) of the same compound?
**A.** 95.8%

**Q.** What about the viability, T/C [4] of the same compound?
**A.** 89%

**Q.** What about the viability, T/C (second compound 0.1 µM, first compound 1 µM) of the same compound?
**A.** 87.9%

**Q.** And the viability, T/C (second compound 0.1 µM, first compound 3.16 µM)?
**A.** 95.1%

**Q.** And the viability, T/C (second compound 0.1 µM, first compound 10 µM)?
**A.** 77.7%

**Q.** And the viability, T/C [5]?
**A.** 90%

**Q.** What about the viability, T/C (second compound 0.316 µM, first compound 0.1 µM) of the same compound?
**A.** 110%

**Q.** What about the viability, T/C [6] of the same compound?
**A.** 130%

**Q.** What about the viability, T/C (second compound 0.316 µM, first compound 1 µM) of the same compound?
**A.** 105%

**Q.** What about the viability, T/C (second compound 0.316 µM, first compound 3.16 µM) of the same compound?
**A.** 82.4%

**Q.** And the viability, T/C (second compound 0.316 µM, first compound 10 µM)?
**A.** 63.5%

**Q.** What about the viability, T/C [7] of the same compound?
**A.** 90.4%

**Q.** What about the viability, T/C (second compound 1 µM, first compound 0.1 µM) of the same compound?
**A.** 84.8%

**Q.** And the viability, T/C [8]?
**A.** 103%

**Q.** What about the viability, T/C (second compound 1 µM, first compound 1 µM) of the same compound?
**A.** 75.9%

**Q.** And the viability, T/C (second compound 1 µM, first compound 3.16 µM)?
**A.** 84.9%

**Q.** What about the viability, T/C (second compound 1 µM, first compound 10 µM) of the same compound?
**A.** 61.9%

**Q.** And the viability, T/C [9]?
**A.** 78.5%

**Q.** And the viability, T/C (second compound 3.16 µM, first compound 0.1 µM)?
**A.** 79.5%

**Q.** What about the viability, T/C [10] of the same compound?
**A.** 69.1%

**Q.** And the viability, T/C (second compound 3.16 µM, first compound 1 µM)?
**A.** 73%

**Q.** And the viability, T/C (second compound 3.16 µM, first compound 3.16 µM)?
**A.** 82.4%

**Q.** And the viability, T/C (second compound 3.16 µM, first compound 10 µM)?
**A.** 59.2%

**Q.** And the viability, T/C [11]?
**A.** 31%

**Q.** What about the viability, T/C (second compound 10 µM, first compound 0.1 µM) of the same compound?
**A.** 16.7%

**Q.** What about the viability, T/C [12] of the same compound?
**A.** 67.1%

**Q.** And the viability, T/C (second compound 10 µM, first compound 1 µM)?
**A.** 69.8%

**Q.** And the viability, T/C (second compound 10 µM, first compound 3.16 µM)?
**A.** 33.5%

**Q.** And the viability, T/C (second compound 10 µM, first compound 10 µM)?
**A.** 0.3%

**Q.** `CC[C@@]1(O)C(=O)OCc2c1cc1n(c2=O)Cc2cc3c(CN(C)C)c(O)ccc3nc2-1` + Cc1cnc(CNC(=O)c2c(=O)c3ccc(N4CCCN(C)CC4)nc3n3c2sc2ccccc23)cn1 was tested. Which IC50 (second compound 0.0316 µM) did it give?
**A.** > 316 nM

**Q.** What about the IC50 (second compound 0.1 µM) of the same compound?
**A.** > 316 nM

**Q.** And the IC50 (second compound 0.316 µM)?
**A.** > 316 nM

**Q.** What about the IC50 (second compound 1 µM) of the same compound?
**A.** > 316 nM

**Q.** What about the IC50 (second compound 3.16 µM) of the same compound?
**A.** > 316 nM

**Q.** What about the IC50 (second compound 10 µM) of the same compound?
**A.** < 0.999 nM

**Q.** What about the viability, T/C [13] of the same compound?
**A.** 127%

**Q.** And the viability, T/C [14]?
**A.** 86.3%

**Q.** And the viability, T/C [15]?
**A.** 96.4%

**Q.** What about the viability, T/C [1] of the same compound?
**A.** 86.7%

**Q.** What about the viability, T/C [16] of the same compound?
**A.** 98.5%

**Q.** What about the viability, T/C [2] of the same compound?
**A.** 81.3%

**Q.** And the viability, T/C [17]?
**A.** 87.5%

**Q.** What about the viability, T/C [18] of the same compound?
**A.** 116%

**Q.** What about the viability, T/C [19] of the same compound?
**A.** 81.8%

**Q.** What about the viability, T/C [3] of the same compound?
**A.** 101%

**Q.** And the viability, T/C [20]?
**A.** 88.2%

**Q.** And the viability, T/C [4]?
**A.** 73.8%

**Q.** What about the viability, T/C [21] of the same compound?
**A.** 106%

**Q.** And the viability, T/C [22]?
**A.** 92.8%

**Q.** And the viability, T/C [23]?
**A.** 103%

**Q.** What about the viability, T/C [5] of the same compound?
**A.** 84.9%

**Q.** What about the viability, T/C [24] of the same compound?
**A.** 92.4%

**Q.** What about the viability, T/C [6] of the same compound?
**A.** 82.2%

**Q.** What about the viability, T/C [25] of the same compound?
**A.** 76.2%

**Q.** And the viability, T/C [26]?
**A.** 79.8%

**Q.** What about the viability, T/C [27] of the same compound?
**A.** 89.5%

**Q.** And the viability, T/C [7]?
**A.** 79.6%

**Q.** And the viability, T/C [28]?
**A.** 74.3%

**Q.** What about the viability, T/C [8] of the same compound?
**A.** 76.6%

**Q.** What about the viability, T/C [29] of the same compound?
**A.** 80.8%

**Q.** And the viability, T/C [30]?
**A.** 70.7%

**Q.** What about the viability, T/C [31] of the same compound?
**A.** 89.9%

**Q.** And the viability, T/C [9]?
**A.** 94.5%

**Q.** What about the viability, T/C [32] of the same compound?
**A.** 77.7%

**Q.** And the viability, T/C [10]?
**A.** 53.6%

**Q.** What about the viability, T/C [33] of the same compound?
**A.** 0.41%

**Q.** And the viability, T/C [34]?
**A.** 16.5%

**Q.** And the viability, T/C [35]?
**A.** 49.5%

**Q.** And the viability, T/C [11]?
**A.** 36.7%

**Q.** And the viability, T/C [36]?
**A.** 0.46%

**Q.** And the viability, T/C [12]?
**A.** 0.37%

**Q.** What does the source list for `Cn1ncnc1[C@H]1c2n[nH]c(=O)c3cc(F)cc(c23)N[C@@H]1c1ccc(F)cc1` + Cc1cnc(CNC(=O)c2c(=O)c3ccc(N4CCCN(C)CC4)nc3n3c2sc2ccccc23)cn1?
**A.** IC50 (second compound 0.0316 µM): > 316 nM; IC50 (second compound 0.1 µM): > 316 nM; IC50 (second compound 0.316 µM): > 316 nM; IC50 (second compound 1 µM): > 316 nM; IC50 (second compound 3.16 µM): > 316 nM; IC50 (second compound 10 µM): > 316 nM; viability, T/C [13]: 94.1%; viability, T/C [14]: 116%; viability, T/C [15]: 125%; viability, T/C [1]: 87.5%; viability, T/C [16]: 108%; viability, T/C [2]: 105%; viability, T/C [17]: 97.2%; viability, T/C [18]: 96.2%; viability, T/C [19]: 91.4%; viability, T/C [3]: 122%; viability, T/C [20]: 121%; viability, T/C [4]: 90.3%; viability, T/C [21]: 93.4%; viability, T/C [22]: 91.2%; viability, T/C [23]: 88.3%; viability, T/C [5]: 99.1%; viability, T/C [24]: 111%; viability, T/C [6]: 105%; viability, T/C [25]: 90.9%; viability, T/C [26]: 96.9%; viability, T/C [27]: 84.2%; viability, T/C [7]: 104%; viability, T/C [28]: 83.2%; viability, T/C [8]: 94.1%; viability, T/C [29]: 85.3%; viability, T/C [30]: 82.3%; viability, T/C [31]: 68.8%; viability, T/C [9]: 91.2%; viability, T/C [32]: 74.2%; viability, T/C [10]: 92.1%; viability, T/C [33]: 71.7%; viability, T/C [34]: 60.6%; viability, T/C [35]: 105%; viability, T/C [11]: 61.1%; viability, T/C [36]: 87.4%; viability, T/C [12]: 61.8%

Reference: PubChem BioAssay AID2060513 (Molecular Pharmacology Branch, DTP, NCI, 2025)
